Results from US10633386B2, “BET protein degraders” (THE REGENTS OF THE UNIVERSITY OF MICHIGAN, priority 2016, dated 2020).
Read-outs that look alike come from different tables or passages of the source.

Experiments:
Type in all cases: cell-based
H322 = test: Cell growth inhibition (CellTiter-Glo), NSCLC line H322; conditions: H322 non-small cell lung cancer cell line, 4 days
Method: (§1) Cell growth inhibitory activity of representative BET bromodomain degraders in representative non-small cell lung cancer cell lines was determined using the CellTiter-Glo® Luminescent Cell Viability Assay. Cells were seeded in 384-well white opaque cell culture plates at a density of 2,000 cells/well with serially diluted compounds and incubated at 37° C. in an atmosphere of 95% air and 5% CO2 for 4 days. Cell viability was determined using the CellTiter-Glo® Luminescent Cell Viability Assay Kit (Promega, Madison, Wis.) according to the manufacture's instruction. Briefly, a volume of CellTiter-Glo® Reagent equal to the volume of cell culture medium was added to each well, and then the plates were incubated at room temperature for 10-20 minutes. The luminescent signal was measured using a Tecan Infinite M1000 multimode microplate reader (Tecan, Morrisville, N.C.). The half maximal inhibitory concentration (IC50) was calculated using the GraphPad Prism 5 software (GraphPad Software, La Jolla, Calif.). Cpd. A is a BET bromodomain inhibitor, see U.S. Appl.

H460 = test: Cell growth inhibition (CellTiter-Glo), NSCLC line H460; conditions: H460 non-small cell lung cancer cell line, 4 days
Method: as §1

H23 = test: Cell growth inhibition (CellTiter-Glo), NSCLC line H23; conditions: H23 non-small cell lung cancer cell line, 4 days
Method: as §1

MDA-MB-468 = test: Cell growth inhibition (CellTiter-Glo), breast cancer line MDA-MB-468; conditions: MDA-MB-468 breast cancer cell line, 4 days
Method: (§2) Cell growth inhibitory activity of representative BET bromodomain degraders in representative breast cancer cell lines was determined using the CellTiter-Glo® Luminescent Cell Viability Assay. SUM-52 and SUM-159 cell lines were established at the University of Michigan Comprehensive Cancer Center. All the other breast cancer cell lines were obtained from the ATCC (Manassas, Va.). Cells were seeded in 384-well cell culture plates at a density of 1,000-2,500 cells/well with serially diluted compounds and incubated at 37° C. in an atmosphere of 95% air and 5% CO2 for 4 days. Cell viability was determined using the CellTiter-Glo® Luminescent Cell Viability Assay Kit (Promega, Madison, Wis.) according to the manufacture's instruction. Briefly, a volume of CellTiter-Glo® Reagent equal to the volume of cell culture medium was added to each well, and then the plates were incubated at room temperature for 20-60 minutes. The luminescent signal was measured using a Tecan Infinite M1000 multimode microplate reader (Tecan, Morrisville, N.C.). The half maximal inhibitory concentration (IC50) was calculated using the GraphPad Prism 5 software (GraphPad Software, La Jolla, Calif.). “Thd” is thalidomide.

MDA-MB-453 = test: Cell growth inhibition (CellTiter-Glo), breast cancer line MDA-MB-453; conditions: MDA-MB-453 breast cancer cell line, 4 days
Method: as §2

HBL-100 = test: Cell growth inhibition (CellTiter-Glo), breast cancer line HBL-100; conditions: HBL-100 breast cancer cell line, 4 days
Method: as §2

HCC1428 = test: Cell growth inhibition (CellTiter-Glo), breast cancer line HCC1428; conditions: 4 days
Method: as §2

H508 = test: Cell growth inhibition (CellTiter-Glo), colon cancer line H508
Method: as §1, with “Appl. No. 62/121,637, having the following structure:” for “Appl.”
(§3) Cell growth inhibitory activity of representative BET bromodomain degraders in representative colon cancer cell lines, see Table 7, was determined as described in Example 17.

SW1412 = test: Cell growth inhibition (CellTiter-Glo), colon cancer line SW1412
Method: as §1, with “Appl. No. 62/121,637, having the following structure:” for “Appl.”
as §3

MOLM-13 = test: Cell growth inhibition (CellTiter-Glo), MOLM-13; conditions: Homo sapiens, MOLM-13, 96 h, MOLM-13 cells, 4 days
Method: Cell growth inhibitory activity of representative BET bromodomain degraders was determined using CellTiter-Glo® Luminescent Cell Viability Assay. Cells were seeded in 384-well white opaque cell culture plates at a density of 2,000 cells/well with serially diluted compounds and incubated at 37° C. in an atmosphere of 95% air and 5% CO2 for 4 days. Cell viability was determined using the CellTiter-Glo® Luminescent Cell Viability Assay Kit (Promega, Madison, Wis.) according to the manufacture's instruction. Briefly, a volume of CellTiter-Glo® Reagent equal to the volume of cell culture medium was added to each well, and then the plates were incubated at room temperature for 10-20 minutes. The luminescent signal was measured using a Tecan Infinite M1000 multimode microplate reader (Tecan, Morrisville, N.C.). The half maximal inhibitory concentration (IC50) was calculated using the GraphPad Prism 5 software (GraphPad Software, La Jolla, Calif.).

HL-60 = test: Cell growth inhibition (CellTiter-Glo), leukemia line HL-60; conditions: HL-60 leukemia cell line
Method: as §1, with “Appl. No. 62/121,637, having the following structure: Cell growth inhibitory activity of representative BET bromodomain degraders in representative leukemia cell lines, see Table 8, was determined as described in Example 17.” for “Appl.”

Q: `CCn1nc(C2CC2)cc1Nc1nc(COC)nc2[nH]c3cc(-c4c(C)noc4C)c(OC)cc3c12` [Cpd. A, reference compound] was tested. Which IC50 (H322; NCI-H322, 96 h) did it give?
A: 340 nM

Q: What about the IC50 (H460; Homo sapiens, NCI-H460, 96 h) of the same compound?
A: 1790 nM

Q: What about the IC50 (H23; Homo sapiens, NCI-H23, 96 h) of the same compound?
A: 130 nM

Q: And the IC50 (MDA-MB-468; Homo sapiens, 96 h)?
A: 510 nM

Q: What about the IC50 (MDA-MB-453; Homo sapiens, 96 h) of the same compound?
A: 40 nM

Q: What about the IC50 (HBL-100; Homo sapiens, 96 h) of the same compound?
A: 100 nM

Q: And the IC50 (HCC1428; Homo sapiens, 96 h)?
A: 50 nM

Q: What about the IC50 (H508; Homo sapiens, NCI-H508) of the same compound?
A: 167 ± 90 nM

Q: And the IC50 (SW1412)?
A: 40 ± 20 nM

Q: How did the IC50 (MOLM-13) turn out when `CCn1nc(C2CC2)cc1Nc1nc(C(=O)NCCCOCCOCCOCCCNc2cccc3c2C(=O)N(C2CCC(=O)NC2=O)C3=O)nc2[nH]c3cc(-c4c(C)noc4C)c(OC)cc3c12` (stereo not drawn) [Cpd. No. 4] was run?
A: 0.7 nM

Q: And the IC50 (H322; NCI-H322, 96 h)?
A: 44 nM

Q: And the IC50 (H460; Homo sapiens, NCI-H460, 96 h)?
A: 505 nM

Q: What about the IC50 (H23; Homo sapiens, NCI-H23, 96 h) of the same compound?
A: 612 nM

Q: What about the IC50 (MDA-MB-468; Homo sapiens, 96 h) of the same compound?
A: 2 nM

Q: What about the IC50 (MDA-MB-453; Homo sapiens, 96 h) of the same compound?
A: 2 nM

Q: And the IC50 (HBL-100; Homo sapiens, 96 h)?
A: 4 nM

Q: And the IC50 (HCC1428; Homo sapiens, 96 h)?
A: 13 nM

Q: And the IC50 (H508; Homo sapiens, NCI-H508)?
A: 54 ± 30 nM

Q: What about the IC50 (SW1412) of the same compound?
A: 9 ± 4 nM

Q: What about the IC50 (HL-60; Homo sapiens) of the same compound?
A: 600 nM

Q: `CCn1nc(C2CC2)cc1Nc1nc(C(=O)NCCCCNc2cccc3c2C(=O)N(C2CCC(=O)NC2=O)C3=O)nc2[nH]c3cc(-c4c(C)noc4C)c(OC)cc3c12` (stereo not drawn) [Cpd. No. 9] was tested. Which IC50 (MOLM-13) did it give?
A: 1.2 nM

Q: And the IC50 (H322; NCI-H322, 96 h)?
A: 93 nM

Q: And the IC50 (H460; Homo sapiens, NCI-H460, 96 h)?
A: 51000 nM

Q: What about the IC50 (H23; Homo sapiens, NCI-H23, 96 h) of the same compound?
A: 3070 nM

Q: And the IC50 (H508; Homo sapiens, NCI-H508)?
A: 410 ± 150 nM

Q: And the IC50 (SW1412)?
A: 34 ± 20 nM

Q: How did the IC50 (H322) turn out when `Cc1sc2c(c1C)C(c1ccc(Cl)cc1)=N[C@@H](CC(=O)NCCCCNC(=O)COc1cccc3c1C(=O)N(C1CCC(=O)NC1=O)C3=O)c1nnc(C)n1-2` (stereo partly drawn) [dBET1, reference compound] was run?
A: > 5000 nM

Q: What about the IC50 (H460) of the same compound?
A: > 5000 nM

Q: And the IC50 (H23)?
A: > 5000 nM

Q: What about the IC50 (MDA-MB-468) of the same compound?
A: 1390 nM

Q: What about the IC50 (MDA-MB-453) of the same compound?
A: > 5000 nM

Q: And the IC50 (HBL-100)?
A: > 5000 nM

Q: And the IC50 (HCC1428)?
A: > 5000 nM

Q: And the IC50 (H508)?
A: > 5000 nM

Q: What about the IC50 (SW1412) of the same compound?
A: > 5000 nM

Q: What about the IC50 (HL-60) of the same compound?
A: 153000 nM
